Legend:
Assay in all cases: Test C pre-/postemergence greenhouse test
Type in all cases: in vivo
[1] = system: ryegrass, Italian (Lolium multiflorum); conditions: Preemergence, scale 0 to 100
Procedure, shortened: (§1)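 Test chemicals in a non-phytotoxic solvent mixture with surfactant; preemergence on seeds sown in silt loam, postemergence on plants 2–18 cm tall (1- to 4-leaf stage) in peat/vermiculite medium. Greenhouse for 13–21 d, then visual rating against untreated controls, 0 (no effect) to 100 (complete control).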

[2] = system: pigweed, palmer (Amaranthus palmeri); conditions: scale 0 to 100
Procedure, shortened: as §1

[3] = system: foxtail, giant (Setaria faberii); conditions: scale 0 to 100
Procedure, shortened: as §1

soybean (Glycine max) = conditions: scale 0 to 100
Procedure, shortened: as §1

oat, wild (Avena fatua) = conditions: scale 0 to 100
Procedure, shortened: as §1

[4] = system: crabgrass, large (Digitaria sanguinalis); conditions: scale 0 to 100
Procedure, shortened: as §1

[5] = system: oilseed rape (Brassica napus); conditions: Preemergence, scale 0 to 100
Procedure, shortened: as §1

[6] = system: wheat, winter (winter wheat, Triticum aestivum); conditions: scale 0 to 100
Procedure, shortened: as §1

[7] = system: johnsongrass (Sorghum halepense); conditions: Preemergence, scale 0 to 100
Procedure, shortened: as §1

[8] = system: poinsettia, wild (Euphorbia heterophylla); conditions: Preemergence, scale 0 to 100
Procedure, shortened: as §1

[9] = system: velvetleaf (Abutilon theophrasti); conditions: Preemergence, scale 0 to 100
Procedure, shortened: as §1

[10] = system: windgrass (Apera spica-venti); conditions: Preemergence, scale 0 to 100
Procedure, shortened: as §1

[11] = system: galium (catchweed bedstraw, Galium aparine); conditions: scale 0 to 100
Procedure, shortened: as §1

Cc1ccc2ccc(F)cc2c1-c1c(O)c(Cl)nn(C)c1=O [Cpd. No. 21]
Plant response rating, Ryegrass, Italian ([1]; 31 g ai/ha): 98 | Plant response rating, Ryegrass, Italian ([1]; 61 g ai/ha): 50 | Plant response rating, Ryegrass, Italian ([1]; 62 g ai/ha): 98 | Plant response rating, Ryegrass, Italian ([1]; 125 g ai/ha): 100 | Plant response rating, Pigweed, Palmer ([2]; Postemergence, 16 g ai/ha): 30 | Plant response rating, Pigweed, Palmer ([2]; Postemergence, 31 g ai/ha): 30 | Plant response rating, Pigweed, Palmer ([2]; Postemergence, 62 g ai/ha): 30 | Plant response rating, Pigweed, Palmer ([2]; Postemergence, 125 g ai/ha): 95 | Plant response rating, Pigweed, Palmer ([2]; Preemergence, 31 g ai/ha): 55 | Plant response rating, Pigweed, Palmer ([2]; Preemergence, 61 g ai/ha): 20 | Plant response rating, Pigweed, Palmer ([2]; Preemergence, 62 g ai/ha): 70 | Plant response rating, Pigweed, Palmer ([2]; Preemergence, 125 g ai/ha): 90 | Plant response rating, Foxtail, Giant ([3]; Postemergence, 16 g ai/ha): 70 | Plant response rating, Foxtail, Giant ([3]; Postemergence, 31 g ai/ha): 85 | Plant response rating, Foxtail, Giant ([3]; Postemergence, 62 g ai/ha): 90 | Plant response rating, Foxtail, Giant ([3]; Postemergence, 125 g ai/ha): 93 | Plant response rating, Foxtail, Giant ([3]; Preemergence, 31 g ai/ha): 85 | Plant response rating, Foxtail, Giant ([3]; Preemergence, 61 g ai/ha): 10 | Plant response rating, Foxtail, Giant ([3]; Preemergence, 62 g ai/ha): 98 | Plant response rating, Foxtail, Giant ([3]; Preemergence, 125 g ai/ha): 100 | Plant response rating, Soybean (soybean (Glycine max); Postemergence, 16 g ai/ha): 10 | Plant response rating, Soybean (soybean (Glycine max); Postemergence, 31 g ai/ha): 13 | Plant response rating, Soybean (soybean (Glycine max); Postemergence, 62 g ai/ha): 20 | Plant response rating, Soybean (soybean (Glycine max); Postemergence, 125 g ai/ha): 23 | Plant response rating, Soybean (soybean (Glycine max); Preemergence, 31 g ai/ha): 0 | Plant response rating, Soybean (soybean (Glycine max); Preemergence, 61 g ai/ha): 0 | Plant response rating, Soybean (soybean (Glycine max); Preemergence, 62 g ai/ha): 0 | Plant response rating, Soybean (soybean (Glycine max); Preemergence, 125 g ai/ha): 0 | Plant response rating, Oat, Wild (oat, wild (Avena fatua); Postemergence, 16 g ai/ha): 95 | Plant response rating, Oat, Wild (oat, wild (Avena fatua); Postemergence, 31 g ai/ha): 98 | Plant response rating, Oat, Wild (oat, wild (Avena fatua); Postemergence, 62 g ai/ha): 99 | Plant response rating, Oat, Wild (oat, wild (Avena fatua); Postemergence, 125 g ai/ha): 100 | Plant response rating, Oat, Wild (oat, wild (Avena fatua); Preemergence, 31 g ai/ha): 70 | Plant response rating, Oat, Wild (oat, wild (Avena fatua); Preemergence, 61 g ai/ha): 45 | Plant response rating, Oat, Wild (oat, wild (Avena fatua); Preemergence, 62 g ai/ha): 85 | Plant response rating, Oat, Wild (oat, wild (Avena fatua); Preemergence, 125 g ai/ha): 85 | Plant response rating, Crabgrass, Large ([4]; Postemergence, 16 g ai/ha): 40 | Plant response rating, Crabgrass, Large ([4]; Postemergence, 31 g ai/ha): 70 | Plant response rating, Crabgrass, Large ([4]; Postemergence, 62 g ai/ha): 40 | Plant response rating, Crabgrass, Large ([4]; Postemergence, 125 g ai/ha): 70 | Plant response rating, Crabgrass, Large ([4]; Preemergence, 31 g ai/ha): 25 | Plant response rating, Crabgrass, Large ([4]; Preemergence, 61 g ai/ha): 0 | Plant response rating, Crabgrass, Large ([4]; Preemergence, 62 g ai/ha): 30 | Plant response rating, Crabgrass, Large ([4]; Preemergence, 125 g ai/ha): 65 | Plant response rating, Oilseed Rape ([5]; 31 g ai/ha): 85 | Plant response rating, Oilseed Rape ([5]; 61 g ai/ha): 0 | Plant response rating, Oilseed Rape ([5]; 62 g ai/ha): 98 | Plant response rating, Oilseed Rape ([5]; 125 g ai/ha): 100 | Plant response rating, Wheat ([6]; Postemergence, 16 g ai/ha): 45 | Plant response rating, Wheat ([6]; Postemergence, 31 g ai/ha): 65 | Plant response rating, Wheat ([6]; Postemergence, 62 g ai/ha): 78 | Plant response rating, Wheat ([6]; Postemergence, 125 g ai/ha): 80 | Plant response rating, Wheat ([6]; Preemergence, 31 g ai/ha): 90 | Plant response rating, Wheat ([6]; Preemergence, 61 g ai/ha): 5 | Plant response rating, Wheat ([6]; Preemergence, 62 g ai/ha): 90 | Plant response rating, Wheat ([6]; Preemergence, 125 g ai/ha): 90 | Plant response rating, Johnsongrass ([7]; 31 g ai/ha): 10 | Plant response rating, Johnsongrass ([7]; 61 g ai/ha): 5 | Plant response rating, Johnsongrass ([7]; 62 g ai/ha): 50 | Plant response rating, Johnsongrass ([7]; 125 g ai/ha): 65 | Plant response rating, Poinsettia, Wild ([8]; 31 g ai/ha): 5 | Plant response rating, Poinsettia, Wild ([8]; 61 g ai/ha): 0 | Plant response rating, Poinsettia, Wild ([8]; 62 g ai/ha): 10 | Plant response rating, Poinsettia, Wild ([8]; 125 g ai/ha): 25 | Plant response rating, Velvetleaf ([9]; 31 g ai/ha): 75 | Plant response rating, Velvetleaf ([9]; 61 g ai/ha): 40 | Plant response rating, Velvetleaf ([9]; 62 g ai/ha): 75 | Plant response rating, Velvetleaf ([9]; 125 g ai/ha): 95 | Plant response rating, Windgrass ([10]; 31 g ai/ha): 75 | Plant response rating, Windgrass ([10]; 61 g ai/ha): 50 | Plant response rating, Windgrass ([10]; 62 g ai/ha): 85 | Plant response rating, Windgrass ([10]; 125 g ai/ha): 98 | Plant response rating, Galium ([11]; Postemergence, 16 g ai/ha): 90 | Plant response rating, Galium ([11]; Postemergence, 31 g ai/ha): 95 | Plant response rating, Galium ([11]; Postemergence, 62 g ai/ha): 98 | Plant response rating, Galium ([11]; Postemergence, 125 g ai/ha): 78 | Plant response rating, Galium ([11]; Preemergence, 31 g ai/ha): 95 | Plant response rating, Galium ([11]; Preemergence, 61 g ai/ha): 90 | Plant response rating, Galium ([11]; Preemergence, 62 g ai/ha): 95 | Plant response rating, Galium ([11]; Preemergence, 125 g ai/ha): 95

Source: US12435044B2, “Pyridazinone herbicides and pyridazinone intermediates used to prepare a herbicide” (FMC Corporation, priority 2018, dated 2025)
